From paper PMC7649969, “Pyrazolyl-pyrimidones inhibit the function of human solute carrier protein SLC11A2 (hDMT1) by metal chelation” (RSC Medicinal Chemistry, 2020)

Biological target: T1, hDMT1 (SLC11A2) (Homo sapiens, UniProt P49281)
T1 construct: DsRED; expressed in transfected cells
T1 sequence (P49281 1-568): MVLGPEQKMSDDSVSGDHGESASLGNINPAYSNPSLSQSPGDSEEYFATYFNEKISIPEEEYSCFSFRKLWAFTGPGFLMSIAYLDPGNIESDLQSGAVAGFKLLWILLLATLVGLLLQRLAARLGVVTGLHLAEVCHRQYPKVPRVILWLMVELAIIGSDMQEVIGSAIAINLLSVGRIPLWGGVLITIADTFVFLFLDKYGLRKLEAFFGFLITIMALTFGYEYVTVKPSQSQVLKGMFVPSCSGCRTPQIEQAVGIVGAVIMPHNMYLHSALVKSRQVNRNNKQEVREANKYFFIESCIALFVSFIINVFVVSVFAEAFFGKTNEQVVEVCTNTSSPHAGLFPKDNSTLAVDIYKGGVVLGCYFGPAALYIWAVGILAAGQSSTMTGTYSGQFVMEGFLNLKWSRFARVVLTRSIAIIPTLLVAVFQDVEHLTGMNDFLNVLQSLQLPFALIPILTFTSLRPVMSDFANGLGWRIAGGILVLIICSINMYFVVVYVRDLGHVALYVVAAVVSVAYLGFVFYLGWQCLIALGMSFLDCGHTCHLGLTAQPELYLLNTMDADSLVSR
Experiment: radioactive iron uptake assay in HEK293 cells stably overexpressing hDMT1
Type: cell-based
Conditions: for inhibition at 10 µM: HEK293, 10 μM compound, radioactive iron uptake, pH 5.5; for Ligand efficiency: from IC50 of radioactive iron uptake in HEK293-hDMT1; for IC50: radioactive iron 1 μM, 15 min incubation, extracellular pH 5.5, HEK293 stably overexpressing hDMT1

SMILES | inhibition at 10 µM [%] | Ligand efficiency | IC50 [µM]
Cc1cc(=O)[nH]c(-n2nc3c(c2C)CCC3)n1 [Compound 12] | < 20 | – | –
Cc1cc(=O)[nH]c(-n2nc(C)c(Cc3ccccc3)c2C)n1 [Compound 9] | < 20 | – | –
CCc1c(C)nn(-c2nc(C)cc(=O)[nH]2)c1C [Compound 7] | – | 0.40 | 4.2 ± 0.4
Cc1cc(C)c(CSC(=N)N)c(C)c1CSC(=N)N [Compound 2, reference compound] | – | 0.25 | –
Cc1cc(=O)[nH]c(-n2nc(C)c(C)c2C)n1 [Compound 6] | – | 0.44 | 10 ± 0.4
Cc1cc(=O)[nH]c(-n2nc(C(C)(C)C)cc2C)n1 [Compound 10] | < 20 | – | –
Cc1cc(=O)[nH]c(-n2nc(C)c(-c3ccccc3)c2C)n1 [Compound 8] | < 20 | – | –
Cc1cc(=O)[nH]c(-n2nc(-c3ccccc3)cc2C)n1 [Compound 11] | < 20 | – | –

Results, then the compound that gave them:

inhibition at 10 µM [%] | Ligand efficiency | IC50 [µM] | SMILES
< 20 | – | – | CCc1cc(=O)n(-c2nc(C)cc(=O)[nH]2)[nH]1 [Compound 21]
– | 0.43 | 12.5 ± 0.3 | Cc1cc(C)n(-c2nc(C)c(C)c(O)n2)n1 [Compound 19]
– | 0.45 | 3.8 ± 0.2 | CCc1cc(CC)n(-c2nc(C)cc(=O)[nH]2)n1 [Compound 16]
– | 0.42 | 2.26 ± 0.3 | CCc1c2c(nn1-c1nc(C)cc(=O)[nH]1)CCCC2 [Compound 17]
– | 0.42 | 0.94 ± 0.2 | Cc1cc(=O)[nH]c(-n2nc3c4c2CCCC4CCC3)n1 (stereo not shown) [Compound 18]
< 20 | – | – | Cc1cc(=O)[nH]c(-n2[nH]c(C)c(Cc3ccccc3)c2=O)n1 [Compound 22]
< 20 | – | – | CCOC(=O)c1cnc(-n2[nH]c(C)cc2=O)[nH]c1=O [Compound 25]
< 20 | – | – | Cc1cc(=O)[nH]c(-n2nc3c(c2C)CNCC3)n1 [Compound 15]
< 20 | – | – | Cc1cc(C)nc(-n2nc(C)cc2C)n1 [Compound 20]
< 20 | – | – | Cc1cc(=O)[nH]c(-n2nc3c(c2C)COCC3)n1 [Compound 14]
< 20 | – | – | CCc1cc(=O)[nH]c(-n2[nH]c(C)cc2=O)n1 [Compound 24]
